Columns and labels:
MCF-7_RDAC = assay: MTT based cell survival assay, DAC resistant MCF-7; design: species or system human
Procedure: (§1) For cross validation of data obtained from comparative studies of HCT116 parental and resistant cells, we further developed DAC resistant MCF-7 and HL-60 cell lines. […] However, DAC resistant HL-60 cells were obtained as a gift from the author (Qin T. et al., Blood 2009; 113, 659-67) and was further selected in our laboratory by treatment with 5 μM DAC.
MTT based cell survival assay was performed in either case, whether to determine the cross-resistance of the DAC resistant cell lines towards inhibitors of DNA methyltransferases, histone acetyltransferases, histone methyltransferases, histone deacetylases, and histone demethylases, or to determine their sensitivity towards selective BET bromodomain inhibitors. […]
(§2) To determine the IC50 of the epigenetic drugs (Tocris Bioscience, Bristol, United Kingdom), four independent experiments were performed using triplicate wells of 96 well plates. […] The wells with medium alone were included alongside as blank for absorbance readings. […]
(§3) Cross resistance was determined as the fold increase, whereas, the sensitivity was determined as the fold decrease in the IC50 of the drugs for the resistant cell lines compared to their genetically identical drug sensitive counterpart.

R1.4 (HCT116-RDAC) = assay: MTT based cell survival assay, DAC resistant HCT116 clone R1.4; design: species or system human
Procedure: The DAC resistant HCT116 cell lines were developed using two methods.
The method is primarily based on reduction of yellow colored tetrazolium salt, 3-(4,5-dimethylthiazol-2-yl)-2,5-diphenyltetrazolium bromide (MTT) to insoluble purple colored formazan crystals by NAD(P)H-dependent oxidoreductase enzymes in mitochondria of the viable cell.
Cells in 80 μL of medium were plated in each of the experimental and the control wells, followed by addition of 20 μL medium with five-fold drug concentration to experimental wells. The wells with medium alone were included alongside as blank for absorbance readings. After 72 h of drug treatment, 10 μL MTT (Sigma-Aldrich) prepared in 1×PBS (5 mg/mL) was added to all wells including blank and control, and incubated until the purple formazan crystals were visible after which 100 μL of detergent (10% SDS, pH: 5.5) was added and the plates were incubated overnight to solubilize the formazan and the cellular material.
as §3

DAC resistant cell lines = assay: MTT based cell survival assay, DAC resistant cell lines as a group; conditions: Homo sapiens, all of the resistant cell lines, read-out: resistance to DAC (IC50)
Procedure: The DAC resistant HCT116 cell lines were developed using two methods. […] After long term exposure of the cells to cytotoxic dose of the drug, the bulk population was determined to be resistant.
as §1
Resistance to DAC was confirmed by the MTT-based cell survival assay and resistance index was calculated as the fold increase in the IC50 of the resistant cell lines compared with the untreated control. All of the resistant cell lines were >100 μM resistant to DAC. […]
as §2, §3

HCT116-RDAC xenografts = assay: Anti-tumor activity in xenografted mouse model, HCT116-RDAC (clone R1.4); type: in vivo, SCID mice; conditions: HCT116-RDAC xenograft, DAC 2.5 mg/kg i.p., 10 doses, day 0-21
Description: For in vivo validation of HCT116 resistance towards DAC and sensitivity of DAC resistant tumors to (+)-JQ1 treatment, we studied the anti-tumor activity of DAC and (+)-JQ1 in HCT116 parental versus a resistant cell clone R1.4 (HCT116_RDAC). Xenografts were established in 11-12 weeks-old female SCID mice, inoculated with 5×10^6 cells, s.c. on both sides of the chest. After 2 weeks, tumors were palpable (average tumor volume 20 mm^3) and mice were assigned into four groups (8 mice/group). Group I: vehicle control for DAC (10:90, DMSO: PBS) and Group II: DAC, 2.5 mg/kg by i.p. injection once a day for 14 days (5 days on, 2 days off), total 10 doses. […] Body weights of the animals were measured daily and tumor volume data were collected twice a week. […]
For determining the anti-tumor activity of the drugs, DAC and (+)-JQ1, tumor volume data for each group were transformed into relative tumor volumes followed by calculation of treatment to control ratio (T/C ratio) for each time point. […] Statistical significance of the data was determined by calculating bootstrap p-value, n=10000, one-sided test of H0: T/C ratio=1, H1: T/C ratio <1 (Jianrong Wu., Journal of Biopharmaceutical Statistics 2010; 20, 954-64). After day 21, statistical significance cannot be measured accurately due to decreased survival of animals in control group. […]

How did the IC50 (MCF-7_RDAC; Homo sapiens, MCF7, read-out: Mean IC50) turn out when Nc1ncn([C@H]2C[C@H](O)[C@@H](CO)O2)c(=O)n1 [DAC, 2′-deoxy-5-azacytidine] was run?
Its IC50 is > 100 µM.

And the “fold change (resistance)” value (MCF-7_RDAC; IC50 MCF-7_RDAC / IC50 MCF-7)?
Its value is > 421 fold.

What about the IC50 (R1.4 (HCT116-RDAC); Homo sapiens, HCT-116, 72 h, read-out: Mean IC50) of the same compound?
The IC50 was > 100 µM.

What about the “fold change (resistance index)” value (R1.4 (HCT116-RDAC); IC50 R1.4 / IC50 HCT116) of the same compound?
Its value is “(>357) fold”.

What about the IC50 (DAC resistant cell lines) of the same compound?
Its IC50 is > 100 µM.

What about the “fold effect (anti-tumor activity, aAUC of T/C ratio)” value (HCT116-RDAC xenografts) of the same compound?
The value was 1.3.
